Assay results as given in article PMC7194175 (Nature plants, 2019).

What was measured:
CYP72A9 = target: T1, CYP72A9 (Arabidopsis thaliana, UniProt F4IW82); experiment: feeding of recombinant WAT11 yeast culture, GC-MS of products; assay type: cell-based; conditions: AtCPR1 co-expressed, 30 °C, 16 h
T1 sequence (F4IW82 1-508): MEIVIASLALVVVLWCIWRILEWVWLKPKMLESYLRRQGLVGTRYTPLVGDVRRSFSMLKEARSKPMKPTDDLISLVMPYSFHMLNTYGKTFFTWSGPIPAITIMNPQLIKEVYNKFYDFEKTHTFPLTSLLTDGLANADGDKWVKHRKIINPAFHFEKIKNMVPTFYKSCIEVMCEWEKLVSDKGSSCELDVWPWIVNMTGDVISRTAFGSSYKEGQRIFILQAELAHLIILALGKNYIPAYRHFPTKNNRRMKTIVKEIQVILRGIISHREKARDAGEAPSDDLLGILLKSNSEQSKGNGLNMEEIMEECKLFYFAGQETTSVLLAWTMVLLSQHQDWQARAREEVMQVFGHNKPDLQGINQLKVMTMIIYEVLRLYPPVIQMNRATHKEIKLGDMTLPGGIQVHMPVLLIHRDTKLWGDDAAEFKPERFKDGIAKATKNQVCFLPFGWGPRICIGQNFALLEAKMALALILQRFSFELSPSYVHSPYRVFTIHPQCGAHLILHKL

CYP72A15 = target: T2, CYP72A15 (Arabidopsis thaliana, UniProt Q9LUC5); experiment: as above; assay type: cell-based; conditions: AtCPR1 co-expressed; 30 °C, 16 h
T2 sequence (Q9LUC5 1-512): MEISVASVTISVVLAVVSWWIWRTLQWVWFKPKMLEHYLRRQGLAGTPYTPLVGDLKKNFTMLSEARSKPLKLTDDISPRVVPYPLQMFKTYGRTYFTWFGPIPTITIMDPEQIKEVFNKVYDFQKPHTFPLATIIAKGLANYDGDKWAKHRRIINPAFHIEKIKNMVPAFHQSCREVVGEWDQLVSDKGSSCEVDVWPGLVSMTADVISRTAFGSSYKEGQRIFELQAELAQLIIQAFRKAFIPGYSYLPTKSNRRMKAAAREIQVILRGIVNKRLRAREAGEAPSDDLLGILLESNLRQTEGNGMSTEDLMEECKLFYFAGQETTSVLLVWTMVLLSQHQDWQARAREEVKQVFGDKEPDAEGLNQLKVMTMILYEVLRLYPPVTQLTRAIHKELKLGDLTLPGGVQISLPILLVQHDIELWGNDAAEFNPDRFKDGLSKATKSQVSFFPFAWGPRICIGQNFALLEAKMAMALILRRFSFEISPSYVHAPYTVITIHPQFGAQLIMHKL

SMILES	feeding of recombinant WAT11 yeast culture, GC-MS of products (CYP72A9; 13-hydroxylation to GA1)	feeding of recombinant WAT11 yeast culture, GC-MS of products (CYP72A15)	feeding of recombinant WAT11 yeast culture, GC-MS of products (CYP72A9; 13-hydroxylation to GA53)
C=C1C[C@]23C[C@H]1CC[C@H]2[C@@]12CC[C@H](O)[C@@](C)(C(=O)O1)[C@H]2[C@@H]3C(=O)O [GA4]	hydroxylating GA4, GA9, and GA12 at C13 position to produce GA1, GA20, and GA53	–	–
C=C1C[C@]23C[C@H]1CC[C@H]2[C@]1(C)CCC[C@@](C)(C(=O)O)[C@H]1[C@@H]3C(=O)O [GA12]	–	utilized ent-kaurenoic acid, GA12 and GA9 as substrates rather than GA4	hydroxylating GA4, GA9, and GA12 at C13 position to produce GA1, GA20, and GA53
